The record followed here is US20090048160A1, “Antimicrobial activity of bovine bactericidal/permeability-increasing protein (BPI)-derived peptides against Gram-negative bacterial mastitis isolates” (priority 2007, published 2009).

Ends that are not written are not given here.

As usually defined, the MBC is the lowest tested concentration that kills the bacteria rather than only halting them. By MIC is commonly meant the lowest concentration found to suppress growth. Lower therefore signals inhibition by little substance.

One assay concerns Enterobacter aerogenes. Type of assay: cell-based. The text has this:
Bacterial isolates of Escherichia coli, Klebsiella pneumonia, Serratia marcescens, Pseudomonas aeruginosa, Enterobacter cloacae, and Enterobacter aerogenes, which were obtained from clinical cases of bovine mastitis, were used to assess the bactericidal activity of peptides in a broth microdilution assay. Isolates were obtained from repositories at Cornell University (gift of Dr. Y. H. Schukken; Quality Milk Production Services Program, Cornell University, Ithaca N.Y.) and the USDA Beltsville Agricultural Research Center. […] A. J. Bramley, Institute for Animal Health, Compton Laboratory, Newbury, England), which was originally isolated from a clinical case of mastitis ([…]. Dairy Res. 43: 205-211) was also used to assess the bactericidal activity of the peptides in biological fluids. Reference strains of E. coli (ATCC 25922) and Staphylococcus aureus (ATCC 29213) were obtained from a commercial source (American Type Culture Collection (ATCC), Manassas, Va.). To obtain fresh inoculums for evaluation, a sterile loop of each bacterial glycerol stock was streaked on a blood agar plate. After an overnight incubation at 35° C., a single uniform colony was picked and sub-passaged by streaking on a new blood agar plate and incubating the plate overnight at 35° C. To evaluate the antimicrobial activity of the peptides against various clinical mastitis bacterial isolates, the minimum inhibitory concentration (MIC) and the minimum bactericidal concentration (MBC) of these peptides against the isolates were determined using a standardized broth microdilution assay. In addition to the mastitis isolates, E. coli (ATCC 25922) and S. aureus (ATCC 29213) reference strains were evaluated. […] The assays were performed in accordance with Clinical and Laboratory Standards Institute (CLSI) [formerly National Committee for Clinical Laboratory Standards (NCCLS)] guidelines (National Committee for Clinical Laboratory Standards. 1999. Methods for Determining Bacterial Activity of Antimicrobial Agents: Approved Guideline. Wayne, Pa.; National Committee for Clinical Laboratory Standards. 2002. Performance Standards for Antimicrobial Disk and Dilution Susceptibility Tests for Bacteria Isolated from Animals: Approved Standard. 2nd Edition, Wayne, Pa.). […] The bacterial suspension was then diluted 100-fold in cation-adjusted Mueller-Hinton broth to reach a final inoculum concentration of 10^6 CFU/ml. […] A negative control column was included in the plate that included 100 μl of broth alone. The plates were incubated for 18 h at 35° C. with ambient air circulation and without shaking. The wells were subsequently inspected for cloudiness and pellet formation using a magnifying glass plate reader. The lowest concentration at which no pellet or cloudiness was apparent in a given well was identified as the MIC. […] The plates were incubated overnight at 35° C. and colonies subsequently enumerated. The MBC values were determined as the lowest concentration at which ≧99.9% of inoculated bacteria were killed. All assays were performed in triplicate and the MIC and MBC range reported.

Assay [1] deals with bacterial LPS derived from E. coli 0111:B4. As to the kind of experiment: LPS neutralization, Limulus amebocyte lysate (LAL) assay. The assay is classed as biochemical. The conditions noted are these: 1 ng LPS; for inhibition of LPS activity: 30 min. Here is the method: FIG. 1 depicts the mean (±S.E.) percent neutralization of bacterial LPS bioactivity as determined with the Limulus amebocyte lysate assay. Increasing concentrations of peptides or polymixin B were incubated with 1 ng of E. coli-derived LPS for 30 min. Following incubation, the amount of free LPS was determined by extrapolation from a standard curve and the percent of bound (neutralized) LPS was calculated.
The ability of the peptides to neutralize LPS was determined using a commercially available Limulus amebocyte lysate (LAL) assay (Cambrex BioScience Walkersville, Inc., Walkersville, Md.). As a positive control, polymyxin B (Sigma Chemical Co.) was evaluated in parallel with the peptides. Increasing concentrations of peptides or polymyxin B were incubated with 1 ng of highly purified bacterial LPS (Sigma Chemical Co.), derived from E. coli 0111:B4, in a 500 μl reaction volume of endotoxin-free water for 30 min at 37° C. while shaking at 100 rpm. Following the incubation, the amount of free LPS was determined in each sample according to the manufacturer's instructions. Briefly, 50 μl of the above mixture was placed into a 96-well microtiter plate and the reaction initiated by the addition of an equal volume of amoebocyte lysate. Following an incubation at 37° C. for 10 min, 100 μl of chromogenic substrate was added and the plate incubated for 5-10 min at 37° C. The reaction was stopped by the addition of 50 μl of glacial acetic acid and the absorbance measured at a wavelength of 405 nm on a microplate reader (Biotec Instruments, Inc., Winooski, Vt.). The amount of non-bound LPS was extrapolated from a standard curve and the percent inhibition calculated according to the following formula: […]
To determine whether the bBPI peptides were able to neutralize LPS, increasing concentrations of the peptides were incubated with LPS (1 ng) and the resulting mixture assayed with the LAL assay (FIG. 1). As a positive and negative control, respectively, polymyxin B and a non-BPI-derived peptide were also assayed. […] In contrast, bBPI142-169 and bBPI90-99,148-161 were able to neutralize ≧93% of LPS activity at peptide concentrations of 30 and 100 μg/ml, respectively.

Take “KWKARKNFIKGSSLGWLIQLFRKR [bBPI90-99,148-161]”: in the assay on Enterobacter aerogenes, the MBC was 64 µg/mL and the MIC stood at 64 µg/mL. The “inhibition of LPS activity” value in assay [1] (1 μg/ml) is “no inhibition”. The “inhibition of LPS activity” value in assay [1] (30 μg/ml) is recorded as 74%.
In the assay on Enterobacter aerogenes, “NSQIRPLPDKGLDLSIRDASIKIRGKWKARKNFIK [bBPI65-99]” displayed an MBC above 256 µg/mL and an MIC above 256 µg/mL. In addition, the “inhibition of LPS activity” value in assay [1] (1 μg/ml) was “approximately 20%”. Further, the “maximal inhibition of LPS activity” value in assay [1] (within the dose-response range tested) is listed as 50%.
The sequence “VRIHISGSSLGWLIQLFRKRIESLLQKS [bBPI142-169]” returned an MBC against Enterobacter aerogenes above 256 µg/mL. Besides, the “inhibition of LPS activity” value in assay [1] (1 μg/ml) is “approximately 20%”.
